{"source": "patent US20240307352A1", "about": "“SACUBITRIL VALSARTAN SODIUM SUSTAINED-RELEASE COMPOSITION, AND PREPARATION METHOD THEREFOR AND USE THEREOF” (SHANGHAI AURORA BIOTECHNOLOGY CO., LTD., priority 2021, published 2024)", "origin": "cited, not measured here", "tested_on": "patients with heart failure with reduced ejection fraction (HF-REF)", "conditions": "compared to enalapril-treated counterpart"}
{"substance": "octadecasodium hexa(4-{[(1S,3R)-1-([1,1′-biphenyl)-4-ylmethyl)-4-ethoxy-3-methyl-4-oxobutyl]amino}-4-oxobutyric acid) hexa(N-pentanoyl-N-{[2′-(1H-tetrazol-5-yl)biphenyl-4-yl]methyl}-L-valine)-hydrate (1/15) [LCZ696]", "values": [{"measurement": "Reduction in death risk", "value": 20, "unit": "%"}, {"measurement": "Reduction in hospitalization risk", "value": 21, "unit": "%"}]}
